Test results from the supplement of paper PMC9262897, “Low-cost anti-mycobacterial drug discovery using engineered E. coli” (Nature Communications, 2022).
± gives the standard deviation of the averaged measurements.

Experiments:
Test in all cases: growth (OD600 after 24 h); higher = more growth
[1] = tested on: Efflux+
Procedure: (§1)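 E. coli BW25113 ΔaraC (Efflux+) or efflux-pump deletion strains (ΔtolC ΔentC, ΔemrE, ΔmdtI, ΔyeeO, ΔmdtK, ΔmdtM) diluted 1:100 in M9-based medium with a drug dilution series. Growth is read as OD600 after 24 h; 3 biological replicates.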

[2] = tested on: ∆mdtI
Procedure: as §1

[3] = tested on: ∆mdtM
Procedure: as §1

[4] = tested on: ∆tolC ∆entC
Procedure: as §1

[5] = tested on: ∆emrE
Procedure: as §1

[6] = tested on: ∆mdtK
Procedure: as §1

[7] = tested on: ∆yeeO
Procedure: as §1

CC/C(=C(/CC)c1ccc(O)cc1)c1ccc(O)cc1 [Diethylstilbestrol]
growth
Settings | [1] | [2] | [3] | [4] | [5] | [6] | [7]
drug 0.5 µM | 0.872 ± 0.15 | 0.863 ± 0.16 | 0.7859 ± 0.0033 | 0.995 ± 0.024 | 0.993 ± 0.022 | 0.717 ± 0.032 | 0.983 ± 0.025
drug 1.25 µM | 1.04 ± 0.046 | 0.979 ± 0.022 | 0.8345 ± 0.0046 | 1.04 ± 0.011 | 0.978 ± 0.012 | 0.754 ± 0.083 | 0.991 ± 0.018
drug 2.5 µM | 1.03 ± 0.017 | 0.976 ± 0.031 | 0.903 ± 0.0068 | 1.03 ± 0.0052 | 0.977 ± 0.034 | 0.881 ± 0.028 | 1.01 ± 0.019
drug 5 µM | 1.07 ± 0.022 | 0.9841 ± 0.0028 | 0.956 ± 0.014 | 0.761 ± 0.037 | 1.01 ± 0.035 | 0.786 ± 0.073 | 1 ± 0.026
drug 10 µM | 1.056 ± 0.0079 | 1.02 ± 0.017 | 0.9842 ± 0.0088 | 0.0999 ± 0.018 | 1.06 ± 0.02 | 0.84 ± 0.12 | 1.04 ± 0.011
drug 20 µM | 1.06 ± 0.063 | 0.948 ± 0.055 | 1.05 ± 0.019 | 0.0484 ± 0.0012 | 1.08 ± 0.028 | 0.713 ± 0.032 | 1.07 ± 0.027

N=C(N)c1ccc(OCCCCCOc2ccc(C(=N)N)cc2)cc1 [Pentamidine]
growth
Settings | [1] | [2] | [3] | [4] | [5] | [6] | [7]
drug 6.25 µM | 0.978 ± 0.016 | 1.003 ± 0.0084 | 0.809 ± 0.015 | 0.996 ± 0.023 | 0.879 ± 0.034 | 0.814 ± 0.035 | 0.845 ± 0.043
drug 12.5 µM | 0.894 ± 0.011 | 0.936 ± 0.028 | 0.7967 ± 0.0071 | 0.854 ± 0.033 | 0.8324 ± 0.0056 | 0.77 ± 0.05 | 0.833 ± 0.013
drug 25 µM | 0.88 ± 0.021 | 0.89493 ± 0.00061 | 0.779 ± 0.013 | 0.804 ± 0.018 | 0.826 ± 0.035 | 0.68 ± 0.07 | 0.79 ± 0.029
drug 50 µM | 0.805 ± 0.034 | 0.837 ± 0.037 | 0.745 ± 0.015 | 0.709 ± 0.02 | 0.811 ± 0.041 | 0.513 ± 0.21 | 0.758 ± 0.037
drug 100 µM | 0.635 ± 0.0072 | 0.655 ± 0.039 | 0.614 ± 0.013 | 0.389 ± 0.023 | 0.739 ± 0.024 | 0.367 ± 0.03 | 0.637 ± 0.023
drug 200 µM | 0.337 ± 0.06 | 0.352 ± 0.032 | 0.502 ± 0.097 | 0.0928 ± 0.015 | 0.615 ± 0.0068 | 0.212 ± 0.034 | 0.34 ± 0.014

Nc1nc2ccc(OC(F)(F)F)cc2s1 [Riluzole]
growth
Settings | [1] | [2] | [3] | [4] | [5] | [6] | [7]
drug 16 µM | 1.09 ± 0.017 | 1.06 ± 0.02 | 0.802 ± 0.01 | 1.05 ± 0.014 | 0.961 ± 0.026 | 0.831 ± 0.072 | 0.958 ± 0.011
drug 31 µM | 1.038 ± 0.0013 | 1.045 ± 0.0025 | 0.79 ± 0.015 | 1.09 ± 0.018 | 1.06 ± 0.066 | 0.799 ± 0.032 | 0.905 ± 0.046
drug 62 µM | 0.997 ± 0.033 | 1.01 ± 0.021 | 0.776 ± 0.016 | 1.02 ± 0.023 | 1.08 ± 0.037 | 0.788 ± 0.016 | 0.851 ± 0.057
drug 125 µM | 0.978 ± 0.019 | 0.981 ± 0.029 | 0.74 ± 0.02 | 0.97 ± 0.018 | 1.12 ± 0.039 | 0.749 ± 0.054 | 0.909 ± 0.018
drug 250 µM | 0.973 ± 0.024 | 0.9767 ± 0.0089 | 0.785 ± 0.043 | 0.634 ± 0.019 | 1.09 ± 0.053 | 0.741 ± 0.017 | 0.857 ± 0.035
drug 500 µM | 0.74 ± 0.04 | 0.634 ± 0.072 | 0.527 ± 0.042 | 0.0507 ± 0.0015 | 0.8264 ± 0.0056 | 0.669 ± 0.011 | 0.703 ± 0.019
